Measured values: patent US20040147739A1, “Novel anti-infectives” (priority 2003, published 2004)

biological target: T1, HCV NS5B (Hepatitis C virus genotype 1b, UniProt P26663); assay: biochemical; conditions: not given
T1 construct: The NS5B protein (591 amino acids, 65 kDa) of HCV
Experimental: The activity of the inventive compounds as inhibitors of HCV activity may be measured by any of the suitable methods known to those skilled in the art, including in vivo and in vitro assays. For example, the HCV NS5B inhibitory activity of the compounds of Formulas I, II and III was determined using standard assay procedures described in Behrens et al., EMBO J. 15:12-22 (1996), Lohmann et al., Virology 249:108-118 (1998) and Ranjith-Kumar et al., J. Virology 75:8615-8623 (2001).
The HCV NS5B inhibitory activity of the compounds of Formulas I, II m and IV was determined using standard procedures well known to those skilled in the art and described in, for example Behrens et al., EMBO J. 15:12-22 (1996), Lohmann et al., Virology 249:108-118 (1998) and Ranjith-Kumar et al., J. Virology 75:8615-8623 (2001).

T1 sequence (P26663 2420-3010): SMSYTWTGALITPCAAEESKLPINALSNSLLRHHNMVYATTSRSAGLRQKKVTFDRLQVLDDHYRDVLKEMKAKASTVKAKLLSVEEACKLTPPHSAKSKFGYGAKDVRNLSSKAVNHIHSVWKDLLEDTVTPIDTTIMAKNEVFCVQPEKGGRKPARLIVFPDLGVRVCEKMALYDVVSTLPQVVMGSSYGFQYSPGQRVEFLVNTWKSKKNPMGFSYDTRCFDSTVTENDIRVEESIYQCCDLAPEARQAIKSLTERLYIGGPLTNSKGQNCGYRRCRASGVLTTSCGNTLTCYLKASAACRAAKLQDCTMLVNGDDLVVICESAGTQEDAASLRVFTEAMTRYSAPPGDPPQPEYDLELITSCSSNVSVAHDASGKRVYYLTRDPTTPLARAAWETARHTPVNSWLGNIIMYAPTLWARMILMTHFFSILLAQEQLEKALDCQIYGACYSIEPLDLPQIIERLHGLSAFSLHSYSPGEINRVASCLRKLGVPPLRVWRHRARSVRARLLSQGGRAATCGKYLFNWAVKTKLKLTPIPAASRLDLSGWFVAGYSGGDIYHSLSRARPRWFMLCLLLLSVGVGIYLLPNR

SMILES	IC50 [µM]
COc1ccc(CCNC(=O)c2ccc3c(c2)S(=O)(=O)N=C(c2c(O)c4ccccc4n(CCC4CC4)c2=O)N3)cc1 [Example 102, 3-[1-(2-Cyclopropylethyl)-4-hydroxy-2-oxo-1,2-dihydroquinolin-3-yl]-1,1-dioxo-1,4 dihydroenzo[1,2,4]thiadiazine-7-carboxylic acid [2-(4-methoxyphenyl)ethyl]amide]	> 10
CC(C)CCc1cccc2c(O)c(C3=NS(=O)(=O)c4ccccc4N3)c(=O)[nH]c12 [Example 186, 3-(1,1-Dioxo-1,4-dihydro-1-benzo[1,2,4]thiadiazin-3-yl)-4-hydroxy-8-(3-methylbutyl)-1H-quinolin-2-one]	> 10
CC(C)CCn1c(=O)c(C2=NS(=O)(=O)c3ccccc3N2)c(O)c2c(C(=O)O)cccc21 [Example 188, 3-(1,1-Dioxo-1,4-dihydro-1-benzo[1,2,4]thiadiazin-3-yl)-4-hydroxy-1-(3-methylbutyl)-2-oxo-1,2-dihydro-quinoline-5-carboxylic acid]	> 10
O=C(O)CCCn1c(=O)c(C2=Nc3ccccc3S(=O)(=O)N2)c(O)c2ccccc21 [Example 183, 4-[3-(1,1-Dioxo-1,4-dihydro-1-benzo[1,2,4]thiadiazin-3-yl)-4-hydroxy-2-oxo-2H-quinolin-1-yl]-butyric acid]	> 10
O=c1c(C2=NS(=O)(=O)c3ccccc3N2)c(O)c2ccccc2n1CCCc1ccccc1 [Example 3]	> 10
COc1ccc(C(=O)Nc2ccc3c(c2)c(O)c(C2=NS(=O)(=O)c4ccccc4N2)c(=O)n3CCC(C)C)cc1 [Example 37, N-[3-(1,1-Dioxo-1,4-dihydrobenzo[1,2,4]thiadiazin-3-yl)-4-hydroxy-1-(3-methylbutyl)-2-oxo-1,2dihydroquinolin-6-yl]4-methoxybenzamide]	> 10

Continued, values first:

IC50 [µM]	SMILES
> 10	CC(C)CCn1c(=O)c(C2=Nc3ccccc3S(=O)(=O)N2)c(O)c2ccc(C(=O)O)cc21 [Example 171, 3-(1,1-Dioxo-1,2-dihydrobenzo[1,2,4]thiadiazin-3-yl)-4-hydroxy-1-(3-methylbutyl)-2-oxo-1,2-dihydro-quinoline-7-carboxylic acid]
> 10	O=c1c(C2=NS(=O)(=O)c3ccccc3N2)c(O)c2ccccc2n1CCO [Example 193, 3-(1,1-Dioxo-1,4-dihydro-1-benzo[1,2,4]thiadiazin-3-yl)-4-hydroxy-1-(2-hydroxyethyl)-1H-quinolin-2-one]
> 10	O=c1c(C2=NS(=O)(=O)c3ccccc3N2)c(O)c2ccccc2n1CCc1ccccc1 [Example 1]
> 10	CC(C)CCn1c(=O)c(C2=NS(=O)(=O)c3ccccc3N2)c(O)c2cc(I)ccc21 [Example 185, 3-(1,1-Dioxo-1,4-dihydro-1-benzo[1,2,4]thiadiazin-3-yl)-4-hydroxy-6-iodo-1-(3-methylbutyl)-1H-quinolin-2-one]
> 10	CCOC(=O)CCCn1c(=O)c(C2=NS(=O)(=O)c3ccccc3N2)c(O)c2ccccc21 [Example 182, 4-[3-(1,1-Dioxo-1,4-dihydro-1-benzo[1,2,4]thiadiazin-3-yl)-4-hydroxy-2-oxo-2H-quinolin-1-yl]-butyric acid ethyl ester]
> 10	NC(=O)CCCn1c(=O)c(C2=Nc3ccccc3S(=O)(=O)N2)c(O)c2ccccc21 [Example 170, 4-[3-(1,1-Dioxo-1,2-dihydrobenzo[1,2,4]thiadiazin-3-yl)-4-hydroxy-2-oxoquinolin-1-yl]butyramide]
> 10	CC(C)CCn1c(=O)c(C2=NS(=O)(=O)c3cc(I)ccc3N2)c(O)c2ccccc21 [Example 181, 4-Hydroxy-3-(7-iodo-1,1-dioxo-1,4-dihydro-1-benzo[1,2,4]thiadiazin-3-yl)-1-(3-methylbutyl)-1H-quinolin-2-one]
> 10	CN(C)CCn1c(=O)c(C2=Nc3ccccc3S(=O)(=O)N2)c(O)c2ccccc21 [Example 190, 1-(2-Dimethylamino-ethyl)-3-(1,1-dioxo-1,4-dihydro-1-benzo[1,2,4]thiadiazin-3-yl)-4-hydroxy-1H-quinolin-2-one]
> 10	CC(C)CCn1c(=O)c(C2=Nc3ccccc3S(=O)(=O)N2)c(O)c2ccc(Br)cc21 [Example 173, 7-bromo-3-(1,1-dioxo-1,2-dihydrobenzo[1,2,4]thiadiazin-3-yl)-4-hydroxy-1-(3-methylbutyl)-1H-quinolin-2-one]
> 10	CCOC(=O)c1ccc2c(c1)c(O)c(C1=NS(=O)(=O)c3ccccc3N1)c(=O)n2CCC(C)C [Example 95, 3-(1, i-Dioxo-1,4-dihydrobenzo[1,2,4]thiadiazin-3-yl)-4-hydroxy-1-(3-methylbutyl)-2-oxo-1,2-dihydroquinoline-6-carboxylic acid ethyl ester]
> 10	Cc1ccc(F)cc1Cn1c(=O)c(C2=NS(=O)(=O)c3ccccc3N2)c(O)c2ccccc21 [Example 195, 3-(1,1-Dioxo-1,4-dihydro-1-benzo[1,2,4]thiadiazin-3-yl)-1-(5-fluoro-2-methyl-benzyl)4-hydroxy-1H-quinolin-2-one]
> 10	N#Cc1ccccc1Cn1c(=O)c(C2=Nc3ccccc3S(=O)(=O)N2)c(O)c2ccccc21 [Example 2, 3-(1,1-Dioxo-1,2-dihydrobenzo[1,2,4]thiadiazin-3-yl)-4-hydroxy-1-(2-cyanobenzyl)-1H-quinolin-2-one]
> 10	O=c1c(C2=Nc3ccccc3S(=O)(=O)N2)c(O)c2ccccc2n1Cc1ccccc1[N+](=O)[O-] [Example 196, 3-(1,1-Dioxo-1,4-dihydro-1-benzo[1,2,4]thiadiazin-3-yl)-4-hydroxy-1-(2-nitro-benzyl)-1H-quinolin-2-one]

same assay, conditions: screening rate of 10 uM

SMILES	biological activity at the screening rate of 10 uM
CC(C)CCn1c(=O)c(C2=Nc3ccccc3S(=O)(=O)N2)c(O)c2ccc(Cl)cc21 [Example 199, 7-Chloro-3-(1,1-dioxo-1,2-dihydrobenzo[1,2,4]thiadiazin-3-yl)-4-hydroxy-1-(3-methylbutyl)-H-quinolin-2-one]	did not demonstrate biological activity
CC(C)(C)c1ccc(Cn2c(=O)c(C3=NS(=O)(=O)c4ccccc4N3)c(O)c3ccccc32)cc1 [Example 208, 1-(4-tert-Butylbenzyl)-3-(1,1-dioxo-1,4-dihydro-1-benzo[1,2,4]thiadiazin-3-yl)-4-hydroxy-1H-quinolin-2-one]	did not demonstrate biological activity
CC(C)CCn1c(=O)c(C2=NS(=O)(=O)c3ccccc3N2)c(O)c2ccc(/C=C/C(N)=O)cc21 [Example 204, (E)-3-[3-(1,1-Dioxo-1,4-dihydro-1-benzo[1,2,4]thiadiazin-3-yl)-4-hydroxy-1-(3-methylbutyl)-2-oxo-1,2-dihydro-quinolin-7-yl]acrylamide]	did not demonstrate biological activity
CC(C)CCn1c(=O)c(C2=NS(=O)(=O)c3c(Br)cccc3N2)c(O)c2ccccc21 [Example 203, 3-(8-Bromo-1,1-dioxo-1,4-dihydro-1-benzo[1,2,4]thiadiazin-3-yl)-4-hydroxy-1-(3-methylbutyl)-1H-quinolin-2-one]	did not demonstrate biological activity
CC(C)CCn1c(=O)c(C2=Nc3ccccc3S(=O)(=O)N2)c(O)c2ccc([N+](=O)[O-])cc21 [Example 198, 3-(1,1-Dioxo-1,2-dihydrobenzo[1,2,4]thiadiazin-3-yl)-4-hydroxy-1-(3-methylbutyl)-7-nitro-1H-quinolin-2-one]	did not demonstrate biological activity
O=c1c(C2=NS(=O)(=O)c3ccccc3N2)c(O)c2ccccc2n1CCN1CCCC1 [Example 207, 3-(1,1-Dioxo-1,4-dihydro-1-benzo[1,2,4]thiadiazin-3-yl)-4-hydroxy-1-(2-pyrrolidin-1-yl-ethyl)-1H-quinolin-2-one]	did not demonstrate biological activity
CC(C)CCOc1ccc2c(c1)c(O)c(C1=NS(=O)(=O)c3ccccc3N1)c(=O)n2CC(=O)OC(C)(C)C [Example 205, [3-(1,1-Dioxo-1,4-dihydro-1-benzo[1,2,4]thiadiazin-3-yl)-4-hydroxy-6-(3-methyl-butoxy)-2-oxo-2H-quinolin-1-yl]acetic acid tert-butyl ester]	did not demonstrate biological activity
CC(C)CCn1c(=O)c(C2=NS(=O)(=O)c3ccccc3N2)c(O)c2cc(C(=O)N(C)C)ccc21 [Example 206, 3-(1,1-Dioxo-1,4-dihydro-1-benzo[1,2,4]thiadiazin-3-yl)-4-hydroxy-1-(3-methylbutyl)-2-oxo-1,2-dihydro-quinoline-6-carboxylic acid dimethylamide]	did not demonstrate biological activity
NCCCCn1c(=O)c(C2=Nc3ccccc3S(=O)(=O)N2)c(O)c2ccccc21 [Example 200, 1-(4-Aminobutyl)-3-(1,1-dioxo-1,2-dihydrobenzo[1,2,4]thiadiazin-3-yl)-4-hydroxy-1-1H-quinolin-2-one]	did not demonstrate biological activity
O=c1c(C2=Nc3ccccc3S(=O)(=O)N2)c(O)c2ccccc2n1-c1ccccc1 [Example 201, 3-(1,1-Dioxo-1,2-dihydrobenzo[1,2,4]thiadiazin-3-yl)-4-hydroxy-1-phenyl-1H-quinolin-2-one]	did not demonstrate biological activity

system: not given; assay: not given; conditions: not given

melting point	SMILES
190 to 194.5 °C (dec.)	CC(Br)CCn1c(=O)c(C2=Nc3ccccc3S(=O)(=O)N2)c(O)c2ccccc21 (stereo not drawn) [Example 10, 1-(3-Bromobutyl)-3-(1,1-dioxo-1,2-dihydrobenzo[1,2,4]thiadiazin-3-yl)-4-hydroxy-1-1H-quinolin-2-one]
